Measured values taken from US10093678B2, “Azaspiro derivatives as TRPM8 antagonists” (RaQualia Pharma Inc., priority 2014, dated 2018).

target: T1, human TRPM8 (Homo sapiens, UniProt Q7Z2W7); test: Menthol-induced Ca2+ influx in HEK293 cells stably expressing human TRPM8; type: cell-based; settings: 30 microM menthol-induced Ca2+ influx, read-out: IC50 against TRPM8
T1 construct: expressed in transfected cells; host or cells: HEK293
In short: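 IC50 values were fitted from 11-point dose-response data averaged over duplicate wells. Compound was added for 5 min to Fluo4-loaded HEK293 cells carrying stable human TRPM8, in HBSS/HEPES pH 7.4 with probenecid. Intracellular Ca2+ change after 30 microM menthol addition was then imaged on FDSS.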

T1 sequence (Q7Z2W7 whole entry): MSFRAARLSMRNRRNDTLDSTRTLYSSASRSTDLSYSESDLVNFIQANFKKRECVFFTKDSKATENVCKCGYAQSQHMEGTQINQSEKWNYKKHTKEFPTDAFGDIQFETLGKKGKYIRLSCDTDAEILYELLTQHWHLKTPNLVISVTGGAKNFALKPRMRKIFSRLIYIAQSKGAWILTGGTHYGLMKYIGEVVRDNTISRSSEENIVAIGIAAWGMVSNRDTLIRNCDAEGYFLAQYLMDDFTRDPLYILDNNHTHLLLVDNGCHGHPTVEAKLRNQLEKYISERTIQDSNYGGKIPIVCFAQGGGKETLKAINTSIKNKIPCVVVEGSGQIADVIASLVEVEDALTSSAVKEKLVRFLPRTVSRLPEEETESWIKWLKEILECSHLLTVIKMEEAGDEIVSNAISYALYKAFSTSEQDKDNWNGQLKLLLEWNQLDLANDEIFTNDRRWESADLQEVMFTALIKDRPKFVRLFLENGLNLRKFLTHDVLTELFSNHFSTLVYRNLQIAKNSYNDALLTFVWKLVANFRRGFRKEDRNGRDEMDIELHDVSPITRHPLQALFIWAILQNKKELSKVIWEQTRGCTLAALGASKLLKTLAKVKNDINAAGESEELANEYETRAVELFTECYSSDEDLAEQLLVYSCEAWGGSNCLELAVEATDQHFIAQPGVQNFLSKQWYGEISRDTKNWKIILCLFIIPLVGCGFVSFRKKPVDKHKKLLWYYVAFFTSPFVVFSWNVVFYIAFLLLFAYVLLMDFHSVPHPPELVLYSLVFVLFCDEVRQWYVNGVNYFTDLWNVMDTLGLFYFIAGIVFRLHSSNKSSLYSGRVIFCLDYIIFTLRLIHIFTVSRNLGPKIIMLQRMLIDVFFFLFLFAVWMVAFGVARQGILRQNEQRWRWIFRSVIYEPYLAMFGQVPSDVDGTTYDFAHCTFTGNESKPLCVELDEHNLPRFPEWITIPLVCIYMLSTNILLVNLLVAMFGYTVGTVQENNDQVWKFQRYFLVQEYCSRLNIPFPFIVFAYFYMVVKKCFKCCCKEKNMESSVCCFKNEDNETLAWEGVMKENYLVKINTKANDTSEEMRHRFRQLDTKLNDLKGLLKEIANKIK

IC50, < 100 nM:
COc1ncccc1-c1cnc(C(=O)CN2C(=O)NC3(CCC(F)(F)CC3)C2=O)cn1 [Example 12-4]
Cn1c(-c2cccc(C#N)c2)cnc1C(=O)CN1C(=O)NC2(CCC(F)(F)CC2)C1=O [Example 17-3]
N#Cc1cccc(Oc2ccc(C(=O)CN3C(=O)NC4(CCC(F)(F)CC4)C3=O)cn2)c1 [Example 20-7]
Cc1cc(C(=O)CN2C(=O)NC3(CCC(F)(F)CC3)C2=O)c(C)n1-c1cncc2ccccc12 [Example 3-19]
O=C(CN1C(=O)NC2(CCC(F)(F)CC2)C1=O)c1ccc(-n2cnc3nccnc32)cc1 [Example 19-37]
Cc1cccc(-n2c(C)cc(C(=O)CN3C(=O)NC4(CCC(F)(F)CC4)C3=O)c2C)c1 [Example 3-5]
O=C(CN1C(=O)NC2(CCC(F)(F)CC2)C1=O)c1ccc(-n2c(=O)[nH]c3ccccc32)cc1 [Example 19-22]
Cc1cc(C(=O)CN2C(=O)NC3(CCC(F)(F)CC3)C2=O)n(C)c1-c1cncnc1 [Example 16-16]
O=C(CN1C(=O)NC2(CCC(F)(F)CC2)C1=O)c1ccc(-c2cccnc2)c(Cl)c1 [Example 13-24]
O=C(CN1C(=O)NC2(CCC(F)(F)CC2)C1=O)c1ccc(-c2cnn3ccccc23)cc1 [Example 6-67]
Cc1ccc2nc(CO)n(-c3ccc(C(=O)CN4C(=O)NC5(CCC(F)(F)CC5)C4=O)cc3)c2n1 [Example 28-5, 8,8-difluoro-3-(2-(4-(2-(hydroxymethyl)-5-methyl-3H-imidazo[4,5-b]pyridin-3-yl)phenyl)-2-oxoethyl)-1,3-diazaspiro[4,5]decane-2,4-dione]
Cn1c(C(=O)CN2C(=O)NC3(CCC(F)(F)CC3)C2=O)nc(C2CC2)c1-c1ccccc1 [Example 17-4]
N#Cc1nccnc1Oc1ccc(C(=O)CN2C(=O)NC3(CCC(F)(F)CC3)C2=O)cc1 [Example 21-8]
Cc1cc(C(=O)CN2C(=O)NC3(CCC(F)(F)CC3)C2=O)n(C)c1-c1cccc2c1CNC2=O [Example 16-17]
Cc1cc(C(=O)CN2C(=O)NC3(CCC(F)(F)CC3)C2=O)c(C)n1-c1ccccn1 [Example 3-12]
Cc1sc(C(=O)CN2C(=O)NC3(CCC(F)(F)CC3)C2=O)c(C)c1-c1cccc(C(N)=O)c1 [Example 15-7]
O=C(CN1C(=O)NC2(CCC(F)(F)CC2)C1=O)c1ccc(Oc2ccccn2)nc1 [Example 20-6]
N#CCc1ccccc1-c1ccc(C(=O)CN2C(=O)NC3(CCC(F)(F)CC3)C2=O)cc1 [Example 6-108]
CC(=O)c1cccc(-c2c(C)cc(C(=O)CN3C(=O)NC4(CCC(F)(F)CC4)C3=O)n2C)c1 [Example 16-20]
N#Cc1ncccc1-c1ccc(C(=O)CN2C(=O)NC3(CCC(F)(F)CC3)C2=O)cc1F [Example 8-4]
O=C(CN1C(=O)NC2(CCCCC2)C1=O)c1ccc(-c2nccnc2CO)cc1 [Example 7-10]
Cc1c(C(=O)CN2C(=O)NC3(CCC(F)(F)CC3)C2=O)cn(C)c1-c1cccc(F)c1 [Example 16-24]
COc1ncccc1-c1ccc(C(=O)CN2C(=O)NC3(CCC(F)(F)CC3)C2=O)cc1 [Example 13-45]
Cc1nc(-c2ccc(C(=O)CN3C(=O)NC4(CCC(F)(F)CC4)C3=O)cc2)c2ccccc2n1 [Example 6-33]
Cc1ccnnc1-c1ccc(C(=O)CN2C(=O)NC3(CCC(F)(F)CC3)C2=O)c(F)c1 [Example 8-7]
Cc1sc(C(=O)CN2C(=O)NC3(CCC(F)(F)CC3)C2=O)c(C)c1-c1cccc(C#N)c1 [Example 15-3]
Cc1ccccc1-c1c(C)cc(C(=O)CN2C(=O)NC3(CCC(F)(F)CC3)C2=O)n1C [Example 16-19]
Cc1cc2ccccc2n1-c1ccc(C(=O)CN2C(=O)NC3(CCC(F)(F)CC3)C2=O)cn1 [Example 19-12]
O=C(CN1C(=O)NC2(CCC(F)(F)CC2)C1=O)c1ccc(-c2cnc3ccccn23)cc1 [Example 6-81]
NC(=O)c1cccc(-c2ccc(C(=O)CN3C(=O)NC4(CCC(F)(F)CC4)C3=O)cc2Cl)c1 [Example 13-28]
CN(c1ccccc1)c1ccc(C(=O)CN2C(=O)NC3(CCCCC3)C2=O)cn1 [Example 19-5]
O=C(CN1C(=O)NC2(CCC(F)(F)CC2)C1=O)c1ccc(-c2nccc3ccccc23)cc1 [Example 6-25]
O=C(CN1C(=O)NC2(CCC(F)(F)CC2)C1=O)c1ccc(-c2cnccc2CO)nc1 [Example 9-24]
O=C(CN1C(=O)NC2(CCC(F)(F)CC2)C1=O)c1ccc(-c2cccc3nccnc23)cc1 [Example 6-30]
N#Cc1cccnc1Oc1ccc(C(=O)CN2C(=O)NC3(CCC(F)(F)CC3)C2=O)cc1 [Example 21-1, 2-(4-(2-(8,8-difluoro-2,4-dioxo-1,3-diazaspiro[4.5]decan-3-yl)acetyl)phenoxy)nicotinonitrile]
NCc1ccncc1-c1ccc(C(=O)CN2C(=O)NC3(CCC(F)(F)CC3)C2=O)cc1 [Example 6-58, 3-(2-(4-(4-(aminomethyl)pyridin-3-yl)phenyl)-2-oxoethyl)-8,8-difluoro-1,3-diazaspiro[4.5]decane-2,4-dione]
Cn1c(C(=O)CN2C(=O)NC3(CCC(F)(F)CC3)C2=O)ccc1-c1cccc(C#N)c1 [Example 16-1]
N#Cc1ccnnc1Oc1ccc(C(=O)CN2C(=O)NC3(CCC(F)(F)CC3)C2=O)cc1 [Example 21-12, 3-(4-(2-(8,8-difluoro-2,4-dioxo-1,3-diazaspiro[4.5]decan-3-yl)acetyl)phenoxy)pyridazine-4-carbonitrile]

IC50, < 10 nM:
O=C(CN1C(=O)NC2(CCC(F)(F)CC2)C1=O)c1ccc(-n2cnc3ccccc32)cc1 [Example 5-7]
O=C(CN1C(=O)NC2(CCC(F)(F)CC2)C1=O)c1ccc(-c2ncnc3[nH]ccc23)cc1 [Example 6-8]
Cc1nc2cccnc2n1-c1ccc(C(=O)CN2C(=O)NC3(CCC(F)(F)CC3)C2=O)cc1 [Example 5-10]
Cc1ccncc1-c1ccc(C(=O)CN2C(=O)NC3(CCCCC3)C2=O)cn1 [Example 9-1]
Cc1ccncc1-c1ccc(C(=O)CN2C(=O)NC3(CCC(F)(F)CC3)C2=O)cc1 [Example 13-35]
O=C(CN1C(=O)NC2(CCC(F)(F)CC2)C1=O)c1ccc(-c2cncc3[nH]ccc23)cc1 [Example 6-5]
O=C(CN1C(=O)NC2(CCC(F)(F)CC2)C1=O)c1ccc(-c2ccnc3[nH]ncc23)cc1 [Example 6-1]

IC50, < 500 nM:
O=C(CN1C(=O)NC2(CCC(F)(F)CC2)C1=O)c1ccc(-c2cccc3c2CC(O)C3)cc1 (centres unmarked) [Example 6-49]
Cc1c(C(=O)CN2C(=O)NC3(CCC(F)(F)CC3)C2=O)cn(C)c1-c1cccnc1 [Example 16-26]
O=C(CN1C(=O)NC2(CCCCC2)C1=O)c1ccc(Oc2ccccc2Cl)nc1 [Example 20-5]
Cc1sc(C(=O)CN2C(=O)NC3(CCC(F)(F)CC3)C2=O)c(C)c1-c1ccccc1 [Example 15-8]
CS(=O)(=O)c1ccccc1-c1ccc(C(=O)CN2C(=O)NC3(CCC(F)(F)CC3)C2=O)cc1 [Example 6-53]
O=C(CN1C(=O)NC2(CCC(F)(F)CC2)C1=O)c1ccc(-n2c(CO)nc3cccnc32)cc1 [Example 28-4, 8,8-difluoro-3-(2-(4-(2-(hydroxymethyl)-3H-imidazo[4,5-b]pyridin-3-yl)phenyl)-2-oxoethyl)-1,3-diazaspiro[4.5]decane-2,4-dione]
N#Cc1cncnc1-c1ccc(C(=O)CN2C(=O)NC3(CCC(F)(F)CC3)C2=O)cc1 [Example 6-93]
O=C(CN1C(=O)NC2(CCC(F)(F)CC2)C1=O)c1ccc(-c2cccc3c2CCN3)cc1 [Example 6-72]
Cc1cc(C(=O)CN2C(=O)NC3(CCC(F)(F)CC3)C2=O)sc1-c1cccc2cccnc12 [Example 14-20]
Cc1cccnc1-c1ccc(C(=O)CN2C(=O)NC3(CCC(F)(F)CC3)C2=O)cc1 [Example 6-82]
O=C1Cc2c(-c3ccc(C(=O)CN4C(=O)NC5(CCC(F)(F)CC5)C4=O)cc3)ccnc2N1 [Example 6-42]
Cc1cc(C(=O)CN2C(=O)NC3(CCC(F)(F)CC3)C2=O)sc1-c1cccc(C(N)=O)c1 [Example 14-18]
Cc1cc(C(=O)CN2C(=O)NC3(CCCCC3)C2=O)c(C)n1-c1cccc(N2CCCC(O)C2)n1 (centres unmarked) [Example 3-29, 3-(2-(1-(6-(3-hydroxypiperidin-1-yl)pyridin-2-yl)-2,5-dimethyl-1H-pyrrol-3-yl)-2-oxoethyl)-1,3-diazaspiro[4.5]decane-2,4-dione]
Cc1cccc(-c2c(C)sc(C(=O)CN3C(=O)NC4(CCC(F)(F)CC4)C3=O)c2C)c1 [Example 15-11]
Cc1cc2ccccc2n1-c1ccc(C(=O)CN2C(=O)NC3(CCC(F)(F)CC3)C2=O)cc1 [Example 19-19]
O=C(CN1C(=O)NC2(CCC(F)(F)CC2)C1=O)c1ccc(-c2cccnc2NCCO)cc1 [Example 6-46]
Cc1ccccc1-c1ccc(C(=O)CN2C(=O)NC3(CCC(F)(F)CC3)C2=O)nn1 [Example 12-7]
O=C(CN1C(=O)NC2(CCC(F)(F)CC2)C1=O)c1ccc(-c2ccnc3c2OCCO3)cc1 [Example 13-50]
NCc1ncccc1-c1ccc(C(=O)CN2C(=O)NC3(CCC(F)(F)CC3)C2=O)cc1 [Example 6-56, 3-(2-(4-(2-(aminomethyl)pyridin-3-yl)phenyl)-2-oxoethyl)-8,8-difluoro-1,3-diazaspiro[4.5]decane-2,4-dione]
O=C(CN1C(=O)NC2(CCC(F)(F)CC2)C1=O)c1ccc(-n2c(C3CC3)nc3cccnc32)cc1 [Example 24-3]
